These results are taken from patent US20200390100A1, “SUBSTITUTED N-HETEROCYCLYL- AND N-HETEROARYL-TETRAHYDROPYRIMIDINONES AND THE SALTS THEREOF, AND THE USE OF SAME AS HERBICIDAL ACTIVE SUBSTANCES” (Bayer Aktiengesellschaft, priority 2017, published 2020).

Assay [1] deals with T1, photosystem II (PS II) (Spinacia oleracea, UniProt P69560).
T1 construct: the chloroplasts were osmotically ruptured and the thylakoid membranes were then obtained by centrifugation; from tissue; host or cells: fresh spinach leaves; thylakoid membrane preparation from isolated chloroplasts
The assay can be described thus: Measurement of PS II activity in thylakoid membranes (DCPIP reduction). The format is biochemical, spinach. Conditions: PS II activity in spinach thylakoid membranes, Table E1; read-out: Effect. The essentials:
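Thylakoid membranes from osmotically ruptured spinach chloroplasts in 50 mM phosphate pH 6.8, 10 mM KCl; compounds added from 100 μM DMSO solution (2.5% DMSO final), 120 μM DCPIP final. DCPIP reduction under light tracked as absorbance decrease at 595 nm over 10 min at 22 °C; % inhibition binned, metribuzin as plate standard.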

The subject of assay [2] is Stellaria media. The assay can be described thus: Pre-emergence herbicidal action, greenhouse, 320 g/ha. The format is in vivo. Conditions: application rate 320 g/ha, scored visually after about 3 weeks vs untreated controls. The essentials:
(§1)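 Seeds were sown in pots and covered with soil. WP or EC formulations were sprayed onto the soil surface as aqueous suspension or emulsion with 0.5% additive. Damage was scored visually after about 3 weeks as % activity against untreated controls (100% = plants dead, 0% = like control).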

In assay [3] the test system is Setaria viridis. The description is as above. The format is in vivo. Conditions: application rate 320 g/ha, Table B11. In short, it runs like this:
as §1

The subject of assay [4] is Veronica persica. The description is as above. The format is in vivo. Conditions: application rate 320 g/ha, Table B13. In short, it runs like this: as §1
The subject of assay [5] is Alopecurus myosuroides. The description is as above. Conditions: application rate 320 g/ha, scored visually after about 3 weeks vs untreated controls. The format is in vivo. In short, it runs like this: as §1
In assay [6] the test system is Pharbitis purpurea. The description is as above. The format is in vivo. Conditions: application rate 320 g/ha, Table B12. In short, it runs like this: as §1
For assay [7], the system named is Matricaria inodora. The assay is described as above. The format is in vivo. Conditions: application rate 320 g/ha, scored visually after about 3 weeks vs untreated controls. The essentials:
as §1

Assay [8] relates to Viola tricolor. The assay is described as above. The format is in vivo. Conditions: application rate 320 g/ha, Table B8. In short, it runs like this: as §1
The subject of assay [9] is Abutilon theophrasti. The description is as above. Conditions: application rate 320 g/ha, scored visually after about 3 weeks vs untreated controls. The format is in vivo. The essentials: as §1
Assay [10] concerns Polygonum convolvulus. Described as above. The format is in vivo. Conditions: application rate 320 g/ha, scored visually after about 3 weeks vs untreated controls. In short, it runs like this: as §1
Assay [11] deals with Hordeum murinum. The description is as above. Conditions: application rate 320 g/ha, Table B14. The format is in vivo. The essentials:
as §1

Assay [12] has as its system Amaranthus retroflexus. The description is as above. The format is in vivo. Conditions: application rate 320 g/ha, scored visually after about 3 weeks vs untreated controls. In short, it runs like this: as §1
Assay [13] deals with Stellaria media. As to the kind of experiment: Post-emergence herbicidal action, greenhouse, 320 g/ha. The format is in vivo. Conditions: application rate 320 g/ha, rated visually after about 3 weeks vs untreated controls. In short, it runs like this: (§2)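 Plants treated post-emergence at the one-leaf stage, 2 to 3 weeks after sowing in sandy loam, with WP or EC formulations plus 0.5% additive at 320 g/ha. Visual rating about 3 weeks later versus untreated controls (100% = dead, 0% = like control).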

Assay [14] has as its system Setaria viridis. The assay is described as above. The format is in vivo. Conditions: application rate 320 g/ha, rated visually after about 3 weeks vs untreated controls. In short, it runs like this:
as §2

Assay [15] relates to Echinochloa crus-galli. The assay is described as above. The format is in vivo. Conditions: application rate 320 g/ha, rated visually after about 3 weeks vs untreated controls. The essentials: as §2
Assay [16] relates to Alopecurus myosuroides. Described as above. The format is in vivo. Conditions: application rate 320 g/ha, rated visually after about 3 weeks vs untreated controls. In short, it runs like this:
as §2

The test system of assay [17] is Pharbitis purpurea. Described as above. The format is in vivo. Conditions: application rate 320 g/ha, rated visually after about 3 weeks vs untreated controls. The essentials: as §2
In assay [18] the test system is Viola tricolor. The description is as above. The format is in vivo. Conditions: application rate 320 g/ha, rated visually after about 3 weeks vs untreated controls. In short, it runs like this: as §2
Assay [19] concerns Abutilon theophrasti. Described as above. Conditions: application rate 320 g/ha, rated visually after about 3 weeks vs untreated controls. The format is in vivo. In short, it runs like this:
as §2

Assay [20] deals with Polygonum convolvulus. The assay is described as above. The format is in vivo. Conditions: application rate 320 g/ha, rated visually after about 3 weeks vs untreated controls. In short, it runs like this:
as §2

The subject of assay [21] is Amaranthus retroflexus. The description is as above. The format is in vivo. Conditions: application rate 320 g/ha, rated visually after about 3 weeks vs untreated controls. The essentials:
as §2

Assay [22] has as its system Avena fatua. The assay can be described thus: Pre-emergence herbicidal action, greenhouse, 320 g/ha. The format is in vivo. Conditions: application rate 320 g/ha, scored visually after about 3 weeks vs untreated controls. In short, it runs like this: as §1
Assay [23] relates to Echinochloa crus-galli. The assay is described as above. Conditions: application rate 320 g/ha, scored visually after about 3 weeks vs untreated controls. The format is in vivo. In short, it runs like this:
as §1

Assay [24] concerns Lolium rigidum. The assay can be described thus: Post-emergence herbicidal action, greenhouse, 320 g/ha. The format is in vivo. Conditions: application rate 320 g/ha, rated visually after about 3 weeks vs untreated controls. The essentials: as §2
Assay [25] deals with Veronica persica. The description is as above. The format is in vivo. Conditions: application rate 320 g/ha, rated visually after about 3 weeks vs untreated controls. In short, it runs like this: as §2
In assay [26] the test system is Matricaria inodora. Described as above. The format is in vivo. Conditions: application rate 320 g/ha, rated visually after about 3 weeks vs untreated controls. The essentials: as §2
Assay [27] deals with Hordeum murinum. The assay is described as above. The format is in vivo. Conditions: application rate 320 g/ha, rated visually after about 3 weeks vs untreated controls. The essentials:
as §2

The test system of assay [28] is Digitaria sanguinalis. The description is as above. The format is in vivo. Conditions: application rate 320 g/ha, rated visually after about 3 weeks vs untreated controls. In short, it runs like this:
as §2

Consider `CC(=O)OC1CCN(C)C(=O)N1c1cc(C(C)(C)C)on1` (centres unmarked) [I.2-162, 3-(5-tert-Butyl-1,2-oxazol-3-yl)-1-methyl-2-oxohexahydropyrimidin-4-yl Acetate], for which, in assay [1], the inhibition at 100 µM is 70 to 90%. For the same compound, the “Stellaria media (efficacy in %)” value in assay [2] and in assay [13] was 100% in each case. Besides, the “Setaria viridis (efficacy in %)” value in [3] is 90%; in assay [14], 100%. The “Veronica persica (efficacy in %)” value in [4] was determined as 90%. Moreover, the “Alopecurus myosuroides (efficacy in %)” value in assay [5] is reported as 90%; in [16], 80%. Further, the “Pharbitis purpurea (efficacy in %)” value in [6] and in assay [17] was 100% each time. In [7], the “Matricaria inodora (efficacy in %)” value came to 100%. Besides, the “Viola tricolor (efficacy in %)” value in assay [8] and in assay [18] was 100% in each case. Besides, the “Abutilon theophrasti (efficacy in %)” value in assay [9] and in assay [19] was 100% throughout. Also, the “Polygonum convolvulus (efficacy in %)” value in [10] and in assay [20] was 100% each time. Besides, the “Hordeum murinum (efficacy in %)” value in assay [11] is 80%. The “Amaranthus retroflexus (efficacy in %)” value in assay [12] and in assay [21] was 100% in each case. For the same compound, the “Echinochloa crus-galli (efficacy in %)” value in assay [15] is given as 80%.
As to `CCC(=O)OC1CCN(C)C(=O)N1c1cc(C(C)(C)C)on1` (centres unmarked) [I.3-162, 3-(5-tert-Butyl-1,2-oxazol-3-yl)-1-methyl-2-oxohexahydropyrimidin-4-yl Propionate], in assay [1], the inhibition at 100 µM fell in the range of 50 to 70%. Further, the “Stellaria media (efficacy in %)” value was found to be 90% in [2] and 100% in assay [13]. For the same compound, the “Setaria viridis (efficacy in %)” value in assay [3] was 100%; in assay [14], 90%. The “Avena fatua (efficacy in %)” value in [22] is recorded as 100%. Also, the “Echinochloa crus-galli (efficacy in %)” value in assay [23] is on record as 80%. Besides, the “Veronica persica (efficacy in %)” value is recorded as 100% in assay [4] and 90% in assay [25]. For the same compound, in assay [5], the “Alopecurus myosuroides (efficacy in %)” value is on record as 80%. The “Pharbitis purpurea (efficacy in %)” value in assay [6] and in assay [17] was 100% in each case. Moreover, the “Matricaria inodora (efficacy in %)” value in assay [7] and in [26] was 100% each time. Besides, the “Viola tricolor (efficacy in %)” value in assay [8] and in assay [18] was 100% each time. The “Abutilon theophrasti (efficacy in %)” value in assay [9] and in assay [19] was 100% in each case. For the same compound, the “Polygonum convolvulus (efficacy in %)” value in assay [10] and in [20] was 100% each time. Also, the “Hordeum murinum (efficacy in %)” value in assay [11] and in [27] was 90% each time. For the same compound, the “Amaranthus retroflexus (efficacy in %)” value in assay [12] and in assay [21] was 100% each time. Also, the “Lolium rigidum (efficacy in %)” value in assay [24] came out at 80%.
`CC(C)CC(=O)OC1CCN(C)C(=O)N1c1cc(C(C)(C)C)on1` (centres unmarked) [I.7-162, 3-(5-tert-Butyl-1,2-oxazol-3-yl)-1-methyl-2-oxohexahydropyrimidin-4-yl 3-methylbutanoate]: the “Stellaria media (efficacy in %)” value in [2] and in assay [13] was 100% in each case. Further, the “Setaria viridis (efficacy in %)” value in assay [3] and in assay [14] was 100% each time. Further, the “Avena fatua (efficacy in %)” value in [22] is reported as 100%. For the same compound, the “Echinochloa crus-galli (efficacy in %)” value in assay [23] is recorded as 80%. Besides, the results for the “Veronica persica (efficacy in %)” value in assay [4] and in assay [25] were 80% and 90%, respectively. Also, the “Alopecurus myosuroides (efficacy in %)” value in [5] and in assay [16] was 90% throughout. Moreover, the “Pharbitis purpurea (efficacy in %)” value in [6] and in assay [17] was 100% throughout. The “Matricaria inodora (efficacy in %)” value in [7] and in [26] was 100% throughout. Besides, the “Viola tricolor (efficacy in %)” value in assay [8] and in [18] was 100% each time. Besides, the “Abutilon theophrasti (efficacy in %)” value in [9] and in assay [19] was 100% each time. The “Polygonum convolvulus (efficacy in %)” value in assay [10] and in assay [20] was 90% in each case. Moreover, the results for the “Hordeum murinum (efficacy in %)” value in [11] and in [27] were 90% and 80%, respectively. Besides, the “Amaranthus retroflexus (efficacy in %)” value in [12] and in [21] was 100% each time. Also, the “Digitaria sanguinalis (efficacy in %)” value in [28] came out at 80%.
